Measurements published in US20240090503A1, “FUNGICIDAL OXADIAZOLES AND THEIR MIXTURES” (FMC CORPORATION, priority 2020, published 2024).

Experiments:
[1] = tested on: Phakopsora pachyrhizi (the causal agent of Asian soybean rust); assay: Test A: preventive spray on soybean seedlings, Asian soybean rust, visual disease rating; type: in vivo; conditions: soybean seedlings; for pest or weed control at 10 µg/mL: Phakopsora pachyrhizi, 216 h, read-out: Test A disease control rating
Source text: (§1) General protocol for preparing test suspensions for Tests A-D: the test compounds were first dissolved in acetone in an amount equal to 3% of the final volume and then suspended at the desired concentration (in ppm) in acetone and purified water (50/50 mix by volume) containing 250 ppm of the surfactant PEG400 (polyhydric alcohol esters). The resulting test suspensions were then used in Tests A-D.
(§2) The test suspension was sprayed to the point of run-off on soybean seedlings. The following day the seedlings were inoculated with a spore suspension of Phakopsora pachyrhizi (the causal agent of Asian soybean rust) and incubated in a saturated atmosphere at 22° C. for 24 h and then moved to a growth chamber at 22° C. for 8 days, after which time visual disease ratings were made.
(§3) The test results for Tests A-C presented in Table A below for compounds of Formula 1 illustrate the fungicidal activity of component (a) contributing to the plant disease control utility of compositions comprising component (a) in combination with component (b) according to the present invention. In the Table, a rating of 100 indicates 100% disease control and a rating of 0 indicates no disease control (relative to the controls). A dash (-) indicates the compound was not tested. The test suspensions were sprayed at the concentration listed in the column “Rate in ppm”, unless otherwise indicated. An asterisk “*” next to the rating indicates a 250 ppm test suspension was used, a double asterisk “**” next to the rating indicates a 100 ppm test suspension was used, and a triple asterisk “***” next to the rating indicates a 50 ppm test suspension was used.

[2] = tested on: Puccinia recondita f. sp. tritici (the causal agent of wheat leaf rust); assay: Test C: preventive spray on wheat seedlings, wheat leaf rust, visual disease rating; type: in vivo; conditions: wheat seedlings; for pest or weed control at 10 µg/mL: Puccinia recondita, 168 h, read-out: Test C disease control rating
Source text: as §1
as §2, with “on wheat” for “on soybean”, “of Puccinia recondita f. sp. tritici;” for “of Phakopsora pachyrhizi”, “of wheat leaf” for “of Asian soybean”, “at 20°” for “at 22°”, “24 h,” for “24 h”, “for 6” for “for 8”
as §3

[3] = test suspension 10 ppm, 100 = 100% disease control, 0 = no control
[4] = 10 ppm test suspension, 100 = 100% disease control, 0 = no control

CCOC(=O)c1cc(CC)nn1Cc1ccc(-c2noc(C(F)(F)F)n2)cc1 [compound 81]
Test A disease control rating [1, 3]: 100%
Test C disease control rating ([2]; test suspension 10 ppm): 0%

CC(COC(=O)c1cnn(Cc2ccc(-c3noc(C(F)(F)F)n3)cc2)c1)=NOC(C)(C)C [compound 220]
Test A disease control rating [1, 3]: 100%
Test C disease control rating ([2]; test suspension 10 ppm): 86%

CCOC(=O)c1cc(C(C)C)nn1Cc1ccc(-c2noc(C(F)(F)F)n2)cc1 [compound 82]
Test A disease control rating [1, 3]: 0%
Test C disease control rating ([2]; test suspension 10 ppm): 0%

O=C(OCCN1CCOCC1)c1cnn(Cc2ccc(-c3noc(C(F)(F)F)n3)cc2)c1 [compound 475]
Test A disease control rating [1, 4]: 100%
Test C disease control rating [2, 4]: 91%

COc1cc(=O)n(Cc2ccc(-c3noc(C(F)(F)F)n3)cc2)nc1Cl [compound 27]
Test A disease control rating ([1]; test suspension 50 ppm): 100%
Test C disease control rating ([2]; test suspension 50 ppm): 100%

Cc1cc(C(=O)OC(=O)C(F)(F)F)nn1Cc1ccc(-c2noc(C(F)(F)F)n2)cc1 [compound 180]
Test A disease control rating [1, 3]: 97%
Test C disease control rating ([2]; test suspension 10 ppm): 0%

CC(C)NC(=O)c1cnn(Cc2ccc(-c3noc(C(F)(F)F)n3)cc2)c1 [compound 63]
Test A disease control rating [1, 3]: 100%
Test C disease control rating ([2]; test suspension 10 ppm): 100%

C=CCOC(=O)c1cc(C)n(Cc2ccc(-c3noc(C(F)(F)F)n3)cc2)n1 [compound 186]
Test A disease control rating [1, 3]: 100%
Test C disease control rating ([2]; test suspension 10 ppm): 74%

COC(=O)c1ccn(Cc2ccc(-c3noc(C(F)(F)F)n3)cc2)c(=O)c1 [Compound 24, methyl 1,2-dihydro-2-oxo-1-[[4-[5-(trifluoromethyl)-1,2,4-oxadiazol-3-yl]phenyl]methyl]-4-pyridinecarboxylate]
pest or weed control at 10 µg/mL [1, 3]: 100%
pest or weed control at 10 µg/mL ([2]; test suspension 10 ppm): 95%

Nc1nn(Cc2ccc(-c3noc(C(F)(F)F)n3)cc2)c2ncccc12 [compound 446]
Test A disease control rating [1, 4]: 99%
Test C disease control rating [2, 4]: 86%

FC(F)(F)c1nc(-c2ccc(Cn3ncc4cc(Br)cnc43)cc2)no1 [compound 413]
Test A disease control rating [1, 4]: 100%
Test C disease control rating [2, 4]: 68%

N#Cc1ccc2nn(Cc3ccc(-c4noc(C(F)(F)F)n4)cc3)cc2c1 [compound 108]
Test A disease control rating ([1]; test suspension 50 ppm): 100%
Test C disease control rating ([2]; test suspension 50 ppm): 100%

FC(F)(F)c1nc(-c2ccc(Cn3cc4c(I)cc(Cl)cc4n3)cc2)no1 [compound 38]
Test A disease control rating [1, 3]: 78%
Test C disease control rating ([2]; test suspension 10 ppm): 68%

COC(=O)c1ccc2cnn(Cc3ccc(-c4noc(C(F)(F)F)n4)cc3)c2c1 [compound 41]
Test A disease control rating [1, 3]: 100%
Test C disease control rating ([2]; test suspension 10 ppm): 98%

CCOC(=O)COC(=O)c1cnn(Cc2ccc(-c3noc(C(F)(F)F)n3)cc2)c1 [compound 476]
Test A disease control rating [1, 4]: 100%
Test C disease control rating [2, 4]: 86%

O=C(O)c1cc(C(=O)O)n(Cc2ccc(-c3noc(C(F)(F)F)n3)cc2)n1 [compound 140]
Test A disease control rating [1, 3]: 0%
Test C disease control rating ([2]; test suspension 10 ppm): 0%

FC(F)(F)c1nc(-c2ccc(Cn3ccc(Br)n3)s2)no1 [compound 72]
Test A disease control rating ([1]; test suspension 50 ppm): 99%
Test C disease control rating ([2]; test suspension 50 ppm): 100%

CC(C)=CCOC(=O)c1cnn(Cc2ccc(-c3noc(C(F)(F)F)n3)cc2)c1 [compound 169]
Test A disease control rating [1, 3]: 100%
Test C disease control rating ([2]; test suspension 10 ppm): 99%

CCOC(=O)CNC(=O)c1cnn(Cc2ccc(-c3noc(C(F)(F)F)n3)cc2)c1 [compound 378]
Test A disease control rating [1, 3]: 100%
Test C disease control rating ([2]; test suspension 10 ppm): 98%

O=[N+]([O-])c1cnn(Cc2ccc(-c3noc(C(F)(F)F)n3)cc2)c1 [compound 382]
Test A disease control rating [1, 4]: 100%
Test C disease control rating [2, 4]: 96%

N#Cc1cccc2c1cnn2Cc1ccc(-c2noc(C(F)(F)F)n2)cc1 [compound 105]
Test A disease control rating ([1]; test suspension 50 ppm): 100%
Test C disease control rating ([2]; test suspension 50 ppm): 100%

O=C(c1csc(Cc2ccc(-c3noc(C(F)(F)F)n3)cc2)n1)N1CCC(F)(F)C1 [compound 207]
Test A disease control rating [1, 3]: 100%
Test C disease control rating ([2]; test suspension 10 ppm): 86%

C=C(C#N)COC(=O)c1cnn(Cc2ccc(-c3noc(C(F)(F)F)n3)cc2)c1 [compound 486]
Test A disease control rating [1, 4]: 100%
Test C disease control rating [2, 4]: 89%

FC(F)(F)c1nc(-c2ccc(CCCn3ccc(-c4ccc(Cl)cc4)n3)cc2)no1 [compound 361]
Test A disease control rating [1, 3]: 100%
Test C disease control rating ([2]; test suspension 10 ppm): 0%

FC(F)(F)c1nc(-c2ccc(Cn3ccc4ccccc43)s2)no1 [compound 196]
Test A disease control rating [1, 3]: 100%
Test C disease control rating ([2]; test suspension 10 ppm): 93%

C=CC(F)(F)OC(=O)c1cnn(Cc2ccc(-c3noc(C(F)(F)F)n3)cc2)c1 [compound 168]
Test A disease control rating [1, 3]: 100%
Test C disease control rating ([2]; test suspension 10 ppm): 100%

O=c1c2ccccc2sn1Cc1ccc(-c2noc(C(F)(F)F)n2)cc1 [compound 155]
Test A disease control rating [1, 3]: 60%
Test C disease control rating ([2]; test suspension 10 ppm): 0%

Cc1ccc(C(O)c2ccc(-c3noc(C(F)(F)F)n3)cc2)cc1 (stereo not drawn) [compound 501]
Test A disease control rating [1, 4]: 100%
Test C disease control rating [2, 4]: 0%

C=CCOC(=O)c1cnn(Cc2ccc(-c3noc(C(F)(F)F)n3)s2)c1 [compound 199]
Test A disease control rating [1, 3]: 100%
Test C disease control rating ([2]; test suspension 10 ppm): 100%

CCOC(=O)c1cnn(CS(=O)(=O)Cc2ccc(-c3noc(C(F)(F)F)n3)cc2)c1 [compound 243]
Test A disease control rating [1, 3]: 98%
Test C disease control rating ([2]; test suspension 10 ppm): 85%

CSc1nn(Cc2ccc(-c3noc(C(F)(F)F)n3)cc2)nc1C [compound 31]
Test A disease control rating [1, 3]: 100%
Test C disease control rating ([2]; test suspension 10 ppm): 100%

CC(C)(C)c1ccn(Cc2ccc(-c3noc(C(F)(F)F)n3)cc2)n1 [compound 98]
Test A disease control rating ([1]; test suspension 50 ppm): 99%
Test C disease control rating ([2]; test suspension 50 ppm): 68%

Cc1cccc2c1cnn2Cc1ccc(-c2noc(C(F)(F)F)n2)cc1 [compound 100]
Test A disease control rating [1, 3]: 100%
Test C disease control rating ([2]; test suspension 10 ppm): 86%

CC(COC(=O)c1cnn(Cc2ccc(-c3noc(C(F)(F)F)n3)cc2)c1)=NOC(C)C [compound 222]
Test A disease control rating [1, 3]: 100%
Test C disease control rating ([2]; test suspension 10 ppm): 97%

CC(C#N)OC(=O)c1cnn(Cc2ccc(-c3noc(C(F)(F)F)n3)cc2)c1 (stereo not drawn) [compound 300]
Test A disease control rating [1, 3]: 94%
Test C disease control rating ([2]; test suspension 10 ppm): 9%

C=CCNC(=O)c1cnn(Cc2ccc(-c3noc(C(F)(F)F)n3)cc2)c1 [compound 64]
Test A disease control rating [1, 3]: 100%
Test C disease control rating ([2]; test suspension 10 ppm): 100%

O=C(NCC(F)(F)F)c1cnn(Cc2ccc(-c3noc(C(F)(F)F)n3)cc2)c1 [compound 449]
Test A disease control rating [1, 4]: 100%
Test C disease control rating [2, 4]: 100%

COC(=O)c1cnn(CCc2ccc(-c3noc(C(F)(F)F)n3)cc2)c1 [compound 436]
Test A disease control rating [1, 4]: 100%
Test C disease control rating [2, 4]: 74%

COC(=O)c1ccc(=O)n(Cc2ccc(-c3noc(C(F)(F)F)n3)cc2)c1 [compound 420]
Test A disease control rating [1, 4]: 100%
Test C disease control rating [2, 4]: 100%

O=C(NCC=C(Cl)Cl)c1csc(Cc2ccc(-c3noc(C(F)(F)F)n3)cc2)n1 [compound 208]
Test A disease control rating [1, 3]: 100%
Test C disease control rating ([2]; test suspension 10 ppm): 86%

Cc1nn(Cc2ccc(-c3noc(C(F)(F)F)n3)cc2)c2cccc(Br)c12 [compound 34]
Test A disease control rating [1, 3]: 71%
Test C disease control rating ([2]; test suspension 10 ppm): 55%

O=C(OCC(F)F)c1cnn(Cc2ccc(-c3noc(C(F)(F)F)n3)cc2)c1 [compound 392]
Test A disease control rating [1, 4]: 100%
Test C disease control rating [2, 4]: 100%

Nc1cnn(Cc2ccc(-c3noc(C(F)(F)F)n3)cc2)c1 [compound 381]
Test A disease control rating [1, 4]: 0%
Test C disease control rating [2, 4]: 0%

CCOC(=O)c1cc(CC)n(Cc2ccc(-c3noc(C(F)(F)F)n3)cc2)n1 [compound 79]
Test A disease control rating [1, 3]: 100%
Test C disease control rating ([2]; test suspension 10 ppm): 68%

FC(F)(F)c1nc(-c2ccc(Cn3ccc4ncccc43)cc2)no1 [Compound 136, 1-[[4-[5-(trifluoromethyl)-1,2,4-oxadiazol-3-yl]phenyl]methyl]-1H-pyrrolo[3,2-b]pyridine]
pest or weed control at 10 µg/mL [1, 3]: 100%
pest or weed control at 10 µg/mL ([2]; test suspension 10 ppm): 68%

N#CC1CCN(Cc2ccc(-c3noc(C(F)(F)F)n3)cc2)C1 (stereo not drawn) [compound 151]
Test A disease control rating ([1]; test suspension 50 ppm): 100%
Test C disease control rating ([2]; test suspension 50 ppm): 98%

FC(F)(F)c1nc(-c2ccc(CN3Cc4ccccc4C3)cc2)no1 [compound 160]
Test A disease control rating [1, 3]: 99%
Test C disease control rating ([2]; test suspension 10 ppm): 98%

CCCNC(=O)c1cnn(Cc2ccc(-c3noc(C(F)(F)F)n3)cc2)c1 [compound 68]
Test A disease control rating [1, 3]: 100%
Test C disease control rating ([2]; test suspension 10 ppm): 100%
